Test results from patent US20240174690A1, “ANNULATED 2-AMINO-3-CYANO THIOPHENES AND DERIVATIVES FOR THE TREATMENT OF CANCER” (BOEHRINGER INGELHEIM INTERNATIONAL GMBH, priority 2021, published 2024).

Experiments:
[1] = biological target: KRAS (G12C)::SOS1 (Homo sapiens (Human), UniProt P01116, C118S/C51S/C80L/G12C); test: KRAS::SOS1 AlphaScreen binding assay, KRAS G12C
Outline: (§1)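 KRAS 1-169 (biotinylated avi-tag) with GST-SOS1 564-1049 and 10 µM GDP in PBS/0.1% BSA/0.05% Tween 20: WT and G13D 10 nM each with 10 nM SOS1; G12D 10 nM and G12C 7.5 nM with 5 nM SOS1. After 30 min, glutathione acceptor/streptavidin donor beads were added for 60 min at RT in the dark, then AlphaScreen read; 4-parameter IC50.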

[2] = biological target: KRAS (G12D)::SOS1 (Homo sapiens (Human), UniProt P01116, G12D); test: KRAS::SOS1 AlphaScreen binding assay, KRAS G12D
Outline: as §1

[3] = Metabolic (microsomal) stability assay, human liver microsomes (HLM); format: in vitro ADME; settings: predicted clearance as percent of liver blood flow, 1 μM
Outline: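 LC-MS/MS tracked parent disappearance at 0, 5, 15, 30 and 60 min in NADPH-initiated incubations with 1 mg/mL human microsomal protein and 1 μM compound at 37°C, pH 7.5. First-order fits gave intrinsic clearance, which was scaled up and reported as % QH. NADPH-free controls were also run.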

Sequence of KRAS (G12D)::SOS1 (P01116 other isoform, or with tags, fused parts or gaps G12D): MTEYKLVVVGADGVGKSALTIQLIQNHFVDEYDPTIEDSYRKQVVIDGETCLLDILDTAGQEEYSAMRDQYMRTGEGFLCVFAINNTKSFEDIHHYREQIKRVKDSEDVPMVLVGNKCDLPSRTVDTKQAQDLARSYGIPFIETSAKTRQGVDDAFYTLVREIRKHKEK
Sequence of KRAS (G12C)::SOS1 (P01116 other isoform, or with tags, fused parts or gaps G12C/C51S/C80L/C118S): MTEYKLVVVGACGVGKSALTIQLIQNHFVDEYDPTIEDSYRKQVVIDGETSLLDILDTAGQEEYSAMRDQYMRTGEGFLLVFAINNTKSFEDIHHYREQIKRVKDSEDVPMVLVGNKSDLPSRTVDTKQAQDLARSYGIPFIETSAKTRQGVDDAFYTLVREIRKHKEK

Compound	IC50 [1]	IC50 [2]	HLM QH [3]
C[C@H](Oc1cc(N2C[C@H](C)N(C)[C@@H](C)C2)nc(-c2onc3c2CCC[C@@]32CCCc3sc(N)c(C#N)c32)n1)[C@@H]1CCCN1C [I-43]	6 nM	1 nM	<24%
C[C@H](Oc1cc(N2CCN(C)C3(CCC3)C2)nc(-c2onc3c2CCC[C@@]32CCCc3sc(N)c(C#N)c32)n1)[C@@H]1CCCN1C [I-44]	13 nM	2 nM	<24%
C[C@H](Oc1cc(N2CCNC3(CC3)C2)nc(-c2onc3c2CCC[C@@]32CCCc3sc(N)c(C#N)c32)n1)[C@@H]1C[C@@H](F)CN1C [I-45]	4 nM	1 nM	45%
CO[C@H]1CCN(C)[C@@H]1[C@H](C)Oc1cc(-n2ccc(CC(=O)NC(C)C)n2)nc(-c2onc3c2CCC[C@@]32CCCc3sc(N)c(C#N)c32)n1 [I-48]	2 nM	1 nM	51%
CO[C@H]1CCN(C)[C@@H]1[C@H](C)Oc1cc(N2CCNC3(CC3)C2)nc(-c2onc3c2CCC[C@@]32CCCc3sc(N)c(C#N)c32)n1 [I-49]	3 nM	1 nM	40%
CO[C@@H]1C[C@@H]([C@H](C)Oc2cc(N3CCN(C)C4(CC4)C3)nc(-c3onc4c3CCC[C@@]43CCCc4sc(N)c(C#N)c43)n2)N(C)C1 [I-50]	5 nM	1 nM	44%
CO[C@H]1CCN(C)[C@@H]1[C@H](C)Oc1cc(-n2ccc(C(=O)N[C@@H]3CCOC3)n2)nc(-c2onc3c2CCC[C@@]32CCCc3sc(N)c(C#N)c32)n1 [I-53]	1 nM	1 nM	56%
CO[C@H]1CCN(C)[C@@H]1[C@H](C)Oc1cc(-n2ccc(C(=O)N[C@H]3CCOC3)n2)nc(-c2onc3c2CCC[C@@]32CCCc3sc(N)c(C#N)c32)n1 [I-54]	1 nM	1 nM	52%
COCCNC(=O)c1ccn(-c2cc(O[C@@H](C)[C@@H]3[C@@H](OC)CCN3C)nc(-c3onc4c3CCC[C@@]43CCCc4sc(N)c(C#N)c43)n2)n1 [I-55]	1 nM	1 nM	56%
C[C@H](Oc1cc(-n2ccc(C(=O)N[C@@H]3CCOC3)n2)nc(-c2onc3c2CCC[C@@]32CCCc3sc(N)c(C#N)c32)n1)[C@@H]1CCCN1C [I-56]	2 nM	2 nM	25%
COCCNC(=O)c1ccn(-c2cc(O[C@@H](C)[C@@H]3CCCN3C)nc(-c3onc4c3CCC[C@@]43CCCc4sc(N)c(C#N)c43)n2)n1 [I-58]	1 nM	1 nM	34%
C[C@H](NC(=O)c1ccn(-c2cc(O[C@@H](C)[C@@H]3CCCN3C)nc(-c3onc4c3CCC[C@@]43CCCc4sc(N)c(C#N)c43)n2)n1)c1ccccn1 [I-59]	1 nM	1 nM	<24%
C[C@H](Oc1cc(-n2ccc(C(=O)N(C)C3COC3)n2)nc(-c2onc3c2CCC[C@@]32CCCc3sc(N)c(C#N)c32)n1)[C@@H]1CCCN1C [I-60]	1 nM	1 nM	<24%
C[C@H](Oc1cc(N2CC(N(C)C)C2)nc(-c2noc3c2CCC[C@@]32CCCc3sc(N)c(C#N)c32)n1)[C@@H]1CCCN1C [II-7]	5 nM	1 nM	<24%
C[C@H](Oc1cc(N2CCN(CCO)CC2)nc(-c2noc3c2CCC[C@@]32CCCc3sc(N)c(C#N)c32)n1)[C@@H]1CCCN1C [II-8]	3 nM	1 nM	<24%
C[C@H](Oc1cc(N2C[C@@H](N(C)C)[C@@H](O)C2)nc(-c2noc3c2CCC[C@@]32CCCc3sc(N)c(C#N)c32)n1)[C@@H]1CCCN1C [II-10]	7 nM	2 nM	<24%
C[C@H](Oc1cc(N2C[C@@H](N(C)C)[C@@H](F)C2)nc(-c2noc3c2CCC[C@@]32CCCc3sc(N)c(C#N)c32)n1)[C@@H]1CCCN1C [II-11]	6 nM	1 nM	<24%
C[C@H](Oc1cc(N2CC[C@H](N3CCCCC3)C2)nc(-c2noc3c2CCC[C@@]32CCCc3sc(N)c(C#N)c32)n1)[C@@H]1CCCN1C [II-12]	8 nM	1 nM	<24%

Compound	IC50 [1]	IC50 [2]	HLM QH [3]
C[C@H](Oc1cc(N2CCN(C)C3(COC3)C2)nc(-c2noc3c2CCC[C@@]32CCCc3sc(N)c(C#N)c32)n1)[C@@H]1CCCN1C [II-13]	2 nM	1 nM	<24%
C[C@H](Oc1cc(N2CC[C@H](N3CCCC3)C2)nc(-c2noc3c2CCC[C@@]32CCCc3sc(N)c(C#N)c32)n1)[C@@H]1CCCN1C [II-14]	4 nM	1 nM	<24%
C[C@H](Oc1cc(N2CC[C@H](N(C)C)C2)nc(-c2noc3c2CCC[C@@]32CCCc3sc(N)c(C#N)c32)n1)[C@@H]1C[C@@H](F)CN1C [II-15]	7 nM	1 nM	<24%
C[C@H]1CN(C)CCCN1c1cc(N2CC[C@H](N(C)C)C2)nc(-c2noc3c2CCC[C@@]32CCCc3sc(N)c(C#N)c32)n1 [II-16]	74 nM	1 nM	<24%
C[C@@H]1CN(c2cc(O[C@@H](C)[C@@H]3C[C@@H](F)CN3C)nc(-c3noc4c3CCC[C@@]43CCCc4sc(N)c(C#N)c43)n2)CC2(CC2)N1 [II-17]	3 nM	2 nM	63%
C[C@H](Oc1cc(N2C[C@H](C)NC3(CC3)C2)nc(-c2noc3c2CCC[C@@]32CCCc3sc(N)c(C#N)c32)n1)[C@@H]1C[C@@H](F)CN1C [II-18]	3 nM	2 nM	58%
C[C@H](Oc1cc(-n2ccc(C(=O)N3CCCC3)n2)nc(-c2noc3c2CCC[C@@]32CCCc3sc(N)c(C#N)c32)n1)[C@@H]1CCCN1C [II-19]	1 nM	1 nM	30%
CNC(=O)c1ccn(-c2cc(O[C@@H](C)[C@@H]3CCCN3C)nc(-c3noc4c3CCC[C@@]43CCCc4sc(N)c(C#N)c43)n2)n1 [II-20]	1 nM	2 nM	<24%
C[C@H](Oc1cc(-n2ccc(C(N)=O)n2)nc(-c2noc3c2CCC[C@@]32CCCc3sc(N)c(C#N)c32)n1)[C@@H]1CCCN1C [II-21]	2 nM	2 nM	<24%
CCOC(=O)c1ccn(-c2cc(O[C@@H](C)[C@@H]3CCCN3C)nc(-c3noc4c3CCC[C@@]43CCCc4sc(N)c(C#N)c43)n2)n1 [II-23]	1 nM	2 nM	<24%
C[C@H](Oc1cc(-n2ccc(C(=O)O)n2)nc(-c2noc3c2CCC[C@@]32CCCc3sc(N)c(C#N)c32)n1)[C@@H]1CCCN1C [II-24]	2 nM	3 nM	<24%
C[C@H](Oc1cc(-n2ccc(C(=O)NC3COC3)n2)nc(-c2noc3c2CCC[C@@]32CCCc3sc(N)c(C#N)c32)n1)[C@@H]1CCCN1C [II-25]	1 nM	2 nM	<24%
C[C@H](Oc1cc(-n2ccc(C(=O)NC3(C)COC3)n2)nc(-c2noc3c2CCC[C@@]32CCCc3sc(N)c(C#N)c32)n1)[C@@H]1CCCN1C [II-26]	1 nM	2 nM	<24%
C[C@H](Oc1cc(-c2ccn(C)n2)nc(-c2noc3c2CCC[C@@]32CCCc3sc(N)c(C#N)c32)n1)[C@@H]1C[C@@H](F)CN1C [II-27]	2 nM	8 nM	44%
C[C@H](Oc1cc(-c2cnn(C)n2)nc(-c2noc3c2CCC[C@@]32CCCc3sc(N)c(C#N)c32)n1)[C@@H]1C[C@@H](F)CN1C [II-28]	7 nM	22 nM	51%
C[C@H]1CN(C)CCCN1c1cc(N2CCN(C)CC2)nc(-c2noc3c2CCC[C@@]32CCCc3sc(N)c(C#N)c32)n1 [II-30]	19 nM	4 nM	<24%
C[C@H](Oc1cc(N2CCNC3(COC3)C2)nc(-c2noc3c2CCC[C@@]32CCCc3sc(N)c(C#N)c32)n1)[C@@H]1CCCN1C [II-31]	2 nM	1 nM	42%
